{"source": "patent US20210393645A1", "about": "“TREATMENT FOR PROGRESSIVE MULTIPLE SCLEROSIS” (UTI LIMITED PARTNERSHIP, priority 2016, published 2021)", "key": {"human neurons [1]": {"system": "human neurons", "assay": "Live cell imaging of propidium iodide positive neurons challenged with FeSO4", "type": "cell-based", "conditions": "FeSO4 50 μM, pre-treatment 1 h", "experimental": "Neurons were prepared as described above. Directly after the addition of FeSO4 to healthy neurons, the live cell-permeant Hoechst 33342 (1:2 diluted in AIM-V medium, nuclear blue; ThermoFisher Scientific, Grand Island, NY, USA) and the live cell-impermeable propinium iodide (PI, 1:20 diluted in AIM-V medium) were added in a volume of 20 μI (Sigma-Aldrich). In compromised cells, PI could now diffuse across the plasma membrane. Live cell imaging was performed using the automated ImageXpress® imaging system under controlled environmental conditions (37° C. and 5% CO2). Images were taken from 9 sites per well at baseline and then every 30 min for 12h. After export with MetaXpress®, videos were edited with ImageJ (NIH) in a uniform manner. Nuclei were pseudo colored in cyan, PI-positive cells in red.\nLive cell imaging over 12 h supported the neuroprotective effects of drugs. We selected indapamide and desipramine for live imaging studies."}, "human neurons [2]": {"system": "human neurons", "assay": "Mitochondrial damage to neurons induced by rotenone", "type": "cell-based", "conditions": "rotenone 10 μM, drug 10 μM", "experimental": "Human neurons were isolated from brain tissues of therapeutically aborted 15-20 week old fetuses, in accordance with ethics approval of the University of Calgary ethics committee, after written informed consent of the pregnant donors. Neurons were isolated as previously described (Vecil et al., 2000) brain specimens were washed in phosphate buffered saline (PBS) to remove blood, followed by removal of meninges. […] Thereafter, the digestion was stopped by addition of 4 ml fetal calf serum (FCS). The solution was filtered through a 132 μm filter and centrifuged (three times, 1,200 rpm, 10 min). Cells were cultured in feeding medium of minimal essential medium (MEM) supplemented with 10% fetal bovine serum (FBS), 1 μM sodium pyruvate, 10 μM glutamine, 1× non-essential amino acids, 0.1% dextrose and 1% penicillin/streptomycin (all culture supplements from Invitrogen, Burlington, Canada). […] For experiments, the neuron-enriched cultures were retrypsinized and cells were plated in poly-L-ornithine pre-coated 96-well plates at a density of 100,000 cells/well in 100 μl of the complete medium supplemented with cytosine arabinoside. […] All conditions were performed in quadruplicates. A day later cells were fixed using 4% paraformaldehyde (PFA) and stored in PBS in 4° C.\nThe iron stock solution was prepared using 27.8 mg iron(II) sulfate heptahydrate (FeSO4) (Sigma-Aldrich, Oakville, Canada), 10 μl of 17.8M sulfuric acid and 10 ml deionized distilled water. After filtering with a 0.2 μm filter, FeSO4 was added to cells in a final concentration of 25-50 μM in a volume of 50 μl medium to the cells. Rotenone was dissolved in dimethyl sulfoxide (DMSO) and used in a final concentration of 10 μM."}, "T-lymphocytes": {"system": "T-lymphocytes", "assay": "Cell cycle analysis of activated splenocytes by flow cytometry (propidium iodide)", "type": "cell-based, mouse", "experimental": "Two days after activation and drug treatment splenocytes were harvested, washed with PBS followed by resuspension in PBS with 2% FBS. Cell cycle analysis was performed taking advantage of propidium iodide staining (50 μg/ml) using an established protocol (Besson and Yong, 2000). Cells were washed in cold PBS and resuspended in PI/Triton X-100 staining solution (10 ml 0.1% (v/v) Triton X-100 in PBS with 2 mg DNAse-free RNAse A and 0.4 ml of 500 μg/ml PI), followed by incubation at 4° C. for 30 min. Stained cells were analyzed on a FACSCalibur™ with the software CellQuest™ (BD Biosciences). Cell cycle analysis was conducted using the software ModFit LT, version 3.3 (Verity Software House Inc.).\nCells were identified by gating into the lymphocyte population, followed by single cell gating to exclude doublets and aggregates. This was followed by identification of the G0/G1 population and processing with the software ModFit LT, version 3.3 (Verity Software House Inc.) to calculate the percentage of cells in different cell cycles."}, "B-cells [3]": {"system": "B-cells", "assay": "Proliferation of activated B-cells (3H-thymidine)", "type": "cell-based, human", "conditions": "BCR/anti-CD40L/IL-4 activation", "experimental": "(§1) Venous blood from healthy volunteers was obtained and peripheral blood mononuclear cells (PBMCs) were isolated by Ficoll gradient centrifugation (1800 RPM, 30 min). From PBMCs, B-cells were isolated by positive selection with CD19 directed microbeads (Stemcell Technologies). Purity was assessed by FACS after staining for CD19 (Stemcell Technologies). Cells were plated in a concentration of 2.5×10^5 cells/well in X-VIVO™ medium (Lonza) supplemented with 1% penicillin/streptomycin and 1% Glutamax and treated with drugs for 1 h. […] Medium as well as respective drugs were re-added followed by application of ^3H-thymidine in a concentration of 1 μCi per well to investigate proliferation."}, "B-cells [4]": {"system": "B-cells", "assay": "TNF-α release of activated B-cells (ELISA)", "type": "cell-based, human", "conditions": "BCR/anti-CD40L/IL-4 activation", "experimental": "as §1"}, "C57BL/6 mice": {"system": "C57BL/6 mice", "assay": "MOG-EAE in C57BL/6 mice, clinical score", "type": "in vivo, mouse"}, "Biozzi ABH mice": {"system": "Biozzi ABH mice", "assay": "Chronic EAE in Biozzi ABH mice (spinal cord homogenate)", "type": "in vivo, mouse", "conditions": "treatment from onset of clinical signs"}, "T-cells": {"system": "T-cells", "assay": "Proliferation of T-lymphocytes (3H-thymidine) in anti-CD3/anti-CD28 activated splenocytes", "type": "cell-based, mouse", "conditions": "concentration response"}, "[5]": {"conditions": "25 mg/kg IP from onset of clinical signs (day 13)"}}, "note": "Counter-ions that a name gives are not always drawn."}
{"compound": "CN(C)CCCN1c2ccccc2CCc2ccc(Cl)cc21", "note": "[CLOMIPRAMINE HYDROCHLORIDE]", "values": [{"measurement": "number of PI-positive neurons in response to FeSO4 over 12 h", "setting": "human neurons [1]", "result": "attenuated"}, {"measurement": "neurotoxicity by rotenone (mitochondrial damage)", "setting": "human neurons [2]", "result": "trended towards a protective activity"}, {"measurement": "concentration from which cell cycle arrest is seen (more cells in G1, less in S-phase)", "setting": "T-lymphocytes", "result": 2, "unit": "µM"}, {"measurement": "concentration from which proliferation of activated B-cells is reduced", "setting": "B-cells [3]", "result": 2, "unit": "µM"}, {"measurement": "concentration from which production of TNF-α of activated B-cells is reduced", "setting": "B-cells [4]", "result": 2, "unit": "µM"}, {"measurement": "manifestations of clinical signs", "setting": "C57BL/6 mice; 25 mg/kg IP from day 0 (day of MOG induction)", "result": "completely suppressed"}, {"measurement": "delay of onset of clinical signs", "setting": "C57BL/6 mice; 25 mg/kg IP from day 5 after induction", "result": 2, "unit": "days"}, {"measurement": "clinical disability of first relapse, days 14-20", "setting": "C57BL/6 mice; [5]", "result": "attenuated the marked rise in clinical disability"}, {"measurement": "second increase in clinical scores, days 42-50", "setting": "C57BL/6 mice; [5]", "result": "prevented"}, {"measurement": "severity of the second relapse", "setting": "C57BL/6 mice; 25 mg/kg IP from remission after first relapse (day 31)", "result": "did not affect the severity of the second relapse"}, {"measurement": "clinical severity in chronic EAE", "setting": "Biozzi ABH mice", "result": "reduced clinical severity"}, {"measurement": "concentration from which T-lymphocyte proliferation is significantly reduced", "setting": "T-cells", "result": 5, "unit": "µM"}]}
